The nature of this data set: pharmacokinetics of cocaine in plasma after i.v. cocaine HCl. Type of data set: in vivo. As to conditions: 2-compartment model, no antibody, i.v. cocaine HCl 0.56 mg/kg. The method, then: The monoclonal antibodies, variants and/or derivatives of the present invention use their binding affinity for cocaine and its derivatives to reduce the concentration of cocaine or its derivatives in the brain. Infused antibodies, variants and/or derivatives also produce a dramatic dose-dependent increase in plasma cocaine concentrations and a concomitant decrease in the brain cocaine concentrations produced by an i.v. injection of cocaine HCI (0.56 mg/kg). […] The anti-cocaine antibodies, variants and/or derivatives of the invention increase the area under the plasma cocaine concentration-time curve (AUC) relative to the AUC in the absence of the anti-cocaine antibodies of the invention. The antibodies, variants and/or derivatives of the present invention decrease cocaine's volume of distribution (l/kg). However, cocaine is still rapidly cleared from plasma and its elimination is described by a single compartment model. The antibodies, variants and/or derivatives also produce a decrease in the cocaine AUC in the brain. Therefore, the effect of the antibodies on plasma and brain cocaine concentrations is predominantly due to a change in the distribution of cocaine with negligible effects on its rate of clearance.

SMILES strings stand for the structures.

For the molecule `COC(=O)[C@H]1[C@@H](OC(=O)c2ccccc2)C[C@@H]2CC[C@H]1N2C` [cocaine], the “distribution t1/2α” value is 1.9 min and the “terminal elimination t1/2β” value amounted to 26.1 min.
